The text below walks through data of patent publication US5053333A, “Protease” (M & D Research Co., Ltd., priority 1988, dated 1991).

Peptide text beside a SMILES is read from it. * marks the point of attachment. AMC = Cc1cc(=O)oc2cc(N*)ccc12; Boc = CC(C)(C)OC(=O)*; OBn = c1ccc(CO*)cc1

In test [1] the test system is Benz-I (protease specific for basic amino acid residue). The experiment in a line: Substrate specificity of Benz-I with fluorescent substrates. The conditions noted are these: activity for Boc-Gln-Arg-Arg-MCA being 100; standard conditions. The class given is biochemical, Kluyveromyces lactis IFO 1903. As to the method: (§1) 1 ml of a reaction mixture containing 50 μmol of Tris-hydrochloride buffer (pH 7.0), 10 mg of Lubrol PX, 0.5 μmol of calcium chloride, 0.1 μmol of Boc-Gln-Arg-Arg-MCA, wherein Boc represents a t-butyloxycarbonyl group while MCA represents 4-methylcoumarin-7-amide and the enzyme is allowed to react at 30° C. The fluorescence (excition wavelength: 380 nm, emmision wavelength: 460 nm) originating from the 7-amino-4-methylcoumarin (AMC) thus formed is monitored with the lapse of time. The amount of the enzyme activity capable of catalyzing the release of 1 n mol of AMC per one minute is defined as 1 U. The specific activity is represented by U per mg of protein. The amount of the protein is determined by measurement the absorbance at […] as E^1% of protein being assumed to be 10.
(§2) The activities of Benz-I and Benz-II were determined under standard conditions with the use of various fluorescent substrates. The activity for each substrate was expressed by relative activity with the activity for Boc-Gln-Arg-Arg-MCA being 100.

Test [2] has as its system Benz-II (protease specific for basic amino acid residue). The experiment in a line: Substrate specificity of Benz-II with fluorescent substrates. The test is classed as biochemical, Kluyveromyces lactis IFO 1903. As to conditions: activity for Boc-Gln-Arg-Arg-MCA being 100; standard conditions. On the procedure: as §1, §2
The test system of test [3] is protease specific for basic amino acid residue from Sporobolomyces odrus IFO 1597. In words: Substrate specificity of Sporobolomyces protease with fluorescent substrates. The test is classed as biochemical. As to conditions: activity for Boc-Gln-Arg-Arg-MCA being 100; standard conditions. As to the method:
A reaction mixture containing 50 μmol of tris hydrochloride buffer solution (pH 7.0), 10 mg of Lubrol PX, 0.5 μmol of calcium chloride, 0.1 μmol of Boc-Gln-Arg-Arg-MCA, wherein Boc represents a t-butyloxycalbonyl group while MCA represents 4-methylcoumarin-7-amide and the enzyme is allowed to react at 30° C. The fluorescence (excition wavelength: 380 nm, emission wavelength: 460 nm) originating from the 7-amino-4-methylcoumarin (AMC) thus formed is monitored. The amount of the enzyme capable of catalyzing the release of 1 nmol of AMC per one minute is defined as 1 U.
The activities of the enzyme for various fluorescent substrates were determined under standard reaction conditions.

The subject of test [4] is Benz-I (protease specific for basic amino acid residue). In words: Behavior of Benz-I against various inhibitors (residual activity). The class given is biochemical, Kluyveromyces lactis IFO 1903. As to conditions: 25° C. 30 minutes, control lot = 100.
For test [5], the system named is Benz-II (protease specific for basic amino acid residue). In words: Behavior of Benz-II against various inhibitors (residual activity). The test is classed as biochemical, Kluyveromyces lactis IFO 1903. The conditions noted are these: 25° C. 30 minutes, control lot = 100.
In test [6] the test system is protease specific for basic amino acid residue from Sporobolomyces odrus IFO 1597. The experiment in a line: Behavior of Sporobolomyces protease against various inhibitors (residual activity). The class given is biochemical. As to conditions: 25° C. 30 minutes.
The next test relates to protease B. In words: Activation and inhibition of protease B (stated properties). The class given is biochemical, Kluyveromyces lactis IFO 1903. The conditions noted are these: statement in words.
The test system of the next test is protease A. The experiment in a line: Activation and inhibition of protease A (stated properties). As to conditions: statement in words. The test is classed as biochemical, Sporobolomyces odrus IFO 1597. On the procedure: The enzymes was incubated in the absence of any substrate in standard reaction mixtures containing various inhibitors at 25° C. for 30 minutes. After adding the substrate, the residual activity of each enzyme was determined.
The enzyme was reacted in the standard reaction mixture while varying the type and concentration of surfactants.
The activity of the enzyme was determined in the presence of 0.1% of EDTA while varying the concentration of CaCl2. […] The concentration of free CaCl2 was calculated from the apparent dissociation constant (K1) of EDTA for CaCl2 (log K1 =7.3).

As to `Cc1cc(=O)oc2cc(NC(=O)[C@H](CCCNC(=N)N)NC(=O)[C@@H]3CCCN3C(=O)CNC(=O)[C@H](C)NC(=O)OC(C)(C)C)ccc12` [Boc--Ala--Gly--Pro--Arg--MCA] (Boc-AGPR-{AMC}), the “Relative activity of Benz-I for substrate” value in test [1] came to 1.9. Further, the “Relative activity of Benz-II for substrate” value (shortened to “Relative activity of Benz-II”) in test [2] came to 1.6. For the same compound, the “Activity (relative) for substrate” value in test [3] worked out at 1%.
The corresponding values for `Cc1cc(=O)oc2cc(NC(=O)[C@H](CCCNC(=N)N)NC(=O)[C@@H]3CCCN3C(=O)[C@H](CC(=O)OCc3ccccc3)NC(=O)OC(C)(C)C)ccc12` [Boc--Asp(OBzl)--Pro--Arg--MCA] (Boc-Asp(OBn)-Pro-Arg-{AMC}) are 12.3, 7.8 and 5%.
For `Cc1cc(=O)oc2cc(NC(=O)[C@H](CCCNC(=N)N)NC(=O)[C@H](CCCNC(=N)N)NC(=O)[C@H](CCC(N)=O)NC(=O)OC(C)(C)C)ccc12` [Boc--Gln--Arg--Arg--MCA, Boc-Gln-Arg-Arg-MCA] (Boc-Gln-Arg-Arg-{AMC}), the “Relative activity of Benz-I for substrate” value in test [1] was 100. In addition, the “Relative activity of Benz-II” value in test [2] was 100. For the same compound, the “Activity (relative) for substrate” value in test [3] amounted to 100%.
Turning to `Cc1cc(=O)oc2cc(NC(=O)[C@H](CCCCN)NC(=O)[C@H](CCCCN)NC(=O)[C@H](CCC(=O)O)NC(=O)OC(C)(C)C)ccc12` [Boc--Glu--Lys--Lys--MCA] (Boc-Glu-Lys-Lys-{AMC}), the “Relative activity of Benz-I for substrate” value in test [1] stood at 1.3. In addition, in test [2], the “Relative activity of Benz-II” value is 0.9. Besides, the “Activity (relative) for substrate” value in test [3] turned out to be 0%.
The corresponding values for `Cc1cc(=O)oc2cc(NC(=O)[C@H](CCCNC(=N)N)NC(=O)[C@H](CCCNC(=N)N)NC(=O)CNC(=O)OC(C)(C)C)ccc12` [Boc--Gly--Arg--Arg--MCA] are 19.8, 19.7 and 32%.
As to `Cc1cc(=O)oc2cc(NC(=O)[C@H](CCCNC(=N)N)NC(=O)[C@H](CCCCN)NC(=O)CNC(=O)OC(C)(C)C)ccc12` [Boc--Gly--Lys--Arg--MCA] (Boc-Gly-Lys-Arg-{AMC}), the “Relative activity of Benz-I for substrate” value in test [1] was found to be 120. Also, the “Relative activity of Benz-II” value in test [2] was found to be 123. Besides, the “Activity (relative) for substrate” value in test [3] was 59%.
The corresponding values for `Cc1cc(=O)oc2cc(NC(=O)[C@H](CCCNC(=N)N)NC(=O)[C@H](CCCNC(=N)N)NC(=O)[C@H](CC(C)C)NC(=O)OC(C)(C)C)ccc12` [Boc--Leu--Arg--Arg--MCA] (Boc-Leu-Arg-Arg-{AMC}) are 159, 156 and 115%.
The corresponding values for `Cc1cc(=O)oc2cc(NC(=O)[C@H](CCCNC(=N)N)NC(=O)[C@H](CCCCN)NC(=O)[C@H](CC(C)C)NC(=O)OC(C)(C)C)ccc12` [Boc--Leu--Lys--Arg--MCA] (Boc-Leu-Lys-Arg-{AMC}) are 123, 127 and 75%.
In the case of `Cc1cc(=O)oc2cc(NC(=O)[C@H](CCCNC(=N)N)NC(=O)[C@@H](NC(=O)[C@H](CO)NC(=O)[C@H](CC(C)C)NC(=O)OC(C)(C)C)[C@@H](C)O)ccc12` [Boc--Leu--Ser--Thr--Arg--MCA] (Boc-LSTR-{AMC}), the “Relative activity of Benz-I for substrate” value in test [1] stood at 127. Moreover, the “Relative activity of Benz-II” value in test [2] was 97.0. Besides, the “Activity (relative) for substrate” value in test [3] is reported as 2%.
The corresponding values for `Cc1cc(=O)oc2cc(NC(=O)[C@H](CCCNC(=N)N)NC(=O)[C@@H](NC(=O)[C@H](CC(C)C)NC(=O)OC(C)(C)C)[C@@H](C)O)ccc12` [Boc--Leu--Thr--Arg--MCA] (Boc-Leu-Thr-Arg-{AMC}) are 20.0, 13.9 and 3%.
The corresponding values for `Cc1cc(=O)oc2cc(NC(=O)[C@H](CCCNC(=N)N)NC(=O)[C@@H]3CCCN3C(=O)[C@@H](NC(=O)OC(C)(C)C)C(C)C)ccc12` [Boc--Val--Pro--Arg--MCA] (Boc-Val-Pro-Arg-{AMC}) are 107, 88.0 and 26%.
For `O=S(=O)([O-])[O-].[Cu+2]` [copper sulfate], the “Residual activity of Benz-I” value in test [4] (inhibitor 1 mM) was 0.2. Further, the “Residual activity of Benz-II” value in test [5] (inhibitor 1 mM) came out at 0.6. For the same compound, the “relative activity (residual)” value in test [6] (Ca2+ +, inhibitor 1 mM) is 2%. Also, the “inhibition of protease B” value in the test on protease B was “inhibited”. Also, the “inhibition of protease A” value in the test on protease A is “inhibited”.
Regarding `O=C(O)CN(CCOCCOCCN(CC(=O)O)CC(=O)O)CC(=O)O` [ethylene glycol bis(2-aminoethyl ether)tetraacetic acid], the “Residual activity of Benz-I” value is given as 53 in test [4] (inhibitor 1 mM) and 12 in test [4] (inhibitor 5 mM). Besides, the results for the “Residual activity of Benz-II” value in test [5] (inhibitor 1 mM) and in test [5] (inhibitor 5 mM) were 43 and 12, respectively. Also, the “relative activity (residual)” value in test [6] (Ca2+ --, inhibitor 1 mM) came out at 10%. Besides, the “inhibition of protease B” value in the test on protease B is listed as “inhibited”. Also, in the test with protease A, the “inhibition of protease A” value is “inhibited”.
As to `[Cl][Hg][Cl]` [mercury chloride], the “Residual activity of Benz-I” value in test [4] (inhibitor 1 mM) turned out to be 0. Moreover, in test [5] (inhibitor 1 mM), the “Residual activity of Benz-II” value was found to be 0. In addition, the “relative activity (residual)” value in test [6] (Ca2+ +, inhibitor 1 mM) was found to be 0%. For the same compound, in the test on protease B, the “inhibition of protease B” value was “inhibited”. Besides, the “inhibition of protease A” value with protease A is “inhibited”.
For `N=C(N)c1ccc(CS(=O)(=O)F)cc1` [p-amidino-PMSF, p-amidinophenylmethanesulfonyl fluoride], in test [4] (inhibitor 1 mM), the “Residual activity of Benz-I” value came to 0. The “Residual activity of Benz-II” value in test [5] (inhibitor 1 mM) amounted to 0. For the same compound, in test [6] (Ca2+ +, inhibitor 1 mM), the “relative activity (residual)” value was 10%. In the test with protease B, the “inhibition of protease B” value is on record as “inhibited”. In addition, the “inhibition of protease A” value in the test on protease A was “inhibited”.
On to `O=C(O)c1cc[c]([Hg][Cl])cc1` [p-chloromercuribenzoic acid], for which, in test [4] (inhibitor 50 μM), the “Residual activity of Benz-I” value came out at 1. Besides, the “Residual activity of Benz-II” value in test [5] (inhibitor 50 μM) came out at 3. In test [6] (Ca2+ +, inhibitor 50 μM), the “relative activity (residual)” value is 36%. Further, in the test on protease B, the “inhibition of protease B” value is listed as “inhibited”. In the test on protease A, the “inhibition of protease A” value is recorded as “inhibited”.
Turning to `[Cl-].[Cl-].[Zn+2]` [zinc chloride], in test [4] (inhibitor 1 mM), the “Residual activity of Benz-I” value is on record as 7. Besides, in test [5] (inhibitor 1 mM), the “Residual activity of Benz-II” value is 7. In addition, in test [6] (Ca2+ +, inhibitor 1 mM), the “relative activity (residual)” value amounted to 1%. The “inhibition of protease B” value in the test with protease B was “inhibited”. Also, in the test on protease A, the “inhibition of protease A” value is “inhibited”.
On to Triton X-100, for which, in the test with protease B, the “activation of protease B” value is “activated”. Besides, the “activation of protease A” value with protease A is on record as “activated”.
